Experimental data: patent EP0346929B1, “Treating agent for Raynaud's disease” (DAIICHI PHARMACEUTICAL CO., LTD., priority 1988, dated 1989)
Counter-ions that a name gives are not always drawn.

Tested on: Laurate-Induced Peripheral Arterial Occlusive Diseases in Rats
Test: Effect on progression of laurate-induced peripheral arterial occlusive diseases in rats
Assay type: in vivo
Procedure: Effect on Progression of Laurate-Induced Peripheral Arterial Occlusive Diseases in Rats
Male Wister-Imamichi rats weighing from 370 to 422 g (purchased from Dobutsu Hanshoku Kenkyukai) were used as test animals.
Rats were anesthetized with pentobarbital (50 mg/kg, i.p.), and the right femoral artery was exposed by surgical incision. 0.1 mℓ of a sodium laurate solution (1 mg of lauric acid/mℓ-saline, pH=8.0) was injected to the right femoral artery, haemostasis was secured by application of a surgical binding "Alonalpha" (a trade name, produced by Toa Gosei Kagaku Co.) to the punctured site of the artery, and the incision was closed with the surgical binding. The animals were then fed ad lib.
The degree of the lesions was graded to 0 - IV, 4 days after the operation for gangrene and 6 days after the operation for mummification or falling off as follows: normal apperance, 0; the affected region was limited to the nail parts, I; to the fingers, II; to the whole paw, III; and extended to the lower leg, IV.
As a test compound, 6-(1-imidazolylmethyl)-5,6,7,8-tetrahydronaphthalene-2-carboxylic acid hydrochloride 1/2 hydrate (hereinafter referred to as Compound A) was dissolved in physiological saline and administered to the left femoral vein at a dose of 3 mg/5 mℓ/kg 5 minutes before the laurate injection to the femoral artery. The effect of the Compound A on suppression of the lesions were examined. The animals in control group were injected with 5 mℓ/kg of saline alone in place of the Compound A. The results obtained are shown in Table 1 below.

What does the source list for O=C(O)c1ccc2c(c1)CCC(Cn1ccnc1)C2 (centres unmarked) [Compound A, 6-(1-imidazolylmethyl)-5,6,7,8-tetrahydronaphthalene-2-carboxylic acid hydrochloride 1/2 hydrate]?
Number of Animals Suffering From: Gangrene After 4 Days, grade 0 (grade 0 = normal apperance, 3 mg/5 mℓ/kg into left femoral vein 5 minutes before laurate injection, 4 days after operation): 2; Number of Animals Suffering From: Mummification or Falling Off After 6 Days, grade 0 (grade 0 = normal apperance, 3 mg/5 mℓ/kg into left femoral vein 5 minutes before laurate injection, 6 days after operation): 2; Number of Animals Suffering From: Gangrene After 4 Days, grade I (grade I = affected region limited to the nail parts, 3 mg/5 mℓ/kg into left femoral vein 5 minutes before laurate injection, 4 days after operation): 3; Number of Animals Suffering From: Mummification or Falling Off After 6 Days, grade I (grade I = affected region limited to the nail parts, 3 mg/5 mℓ/kg into left femoral vein 5 minutes before laurate injection, 6 days after operation): 1; Number of Animals Suffering From: Gangrene After 4 Days, grade II (grade II = affected region limited to the fingers, 3 mg/5 mℓ/kg into left femoral vein 5 minutes before laurate injection, 4 days after operation): 2; Number of Animals Suffering From: Mummification or Falling Off After 6 Days, grade II (grade II = affected region limited to the fingers, 3 mg/5 mℓ/kg into left femoral vein 5 minutes before laurate injection, 6 days after operation): 3; Number of Animals Suffering From: Mummification or Falling Off After 6 Days, grade III (grade III = affected region limited to the whole paw, 3 mg/5 mℓ/kg into left femoral vein 5 minutes before laurate injection, 6 days after operation): 1; grade of lesions (intravenous injection of 3 mg/kg, compared with control group): reduced the grade of lesions
